Assay results as given in patent US20100331311A1 (priority 2005, published 2010).

Experiments:
[1] = system: retinal ganglion cells (RGCs); format: in vivo, Sprague-Dawley rats
[2] = molecular target: alpha-7 nicotinic acetylcholine receptor (Rattus norvegicus, UniProt Q05941); design: species or system Sprague-Dawley rats; settings: in vivo
[3] = system: glaucomatous and normal (contralateral) eyes; design: species or system Brown Norway rats; settings: rat, in vivo, 3.5 mg/kg
Procedure: IOP from glaucomatous and normal (contralateral) eyes was measured in awake animals using a calibrated tonometer (TonoPen XL, Medtronic Solan, Jacksonville, Fla.). Ten to fifteen consecutive readings per eye were taken and averaged to obtain an accurate daily IOP measurement. IOP was measured daily for two weeks after ocular hypertension surgery, and then every other day for the entire duration of the experiment. The mean IOP (mm Hg±S.E.M.) per eye was the average of all IOP readings since the onset of pressure elevation. The maximum IOP measured in each individual eye, glaucomatous or normal contralateral eye, was defined as the peak IOP and this value was used to estimate the mean peak IOP for each group. The delta positive integral IOP was calculated as the area under the IOP curve in the glaucomatous eye minus that of the fellow normal eye from ocular hypertension surgery to euthanasia. Integral IOP represents the total, cumulative IOP exposure throughout the entire experiment.
For this purpose, Applicant measured intraocular pressure every other day for entire duration of daily treatment with galantamine up to 35 days after ocular hypertension (OHT) surgery.

[4] = system: retinal ganglion cells (RGCs); design: species or system Brown Norway rats; settings: rat, in vivo, ip, 3.5 mg/kg
Procedure: Two weeks after ocular hypertension surgery, animals were subjected to daily treatment with galantamine ˜3.5 mg/kg body weight, intraperitoneal administration (i.p.). Analysis of RGC survival was carried out at 5 weeks after ocular hypertension surgery.
Therefore, two weeks after ocular hypertension surgery, animals received daily intraperitoneal (i.p) injections of galantamine at a dose of 3.5 mg/kg b.w. as shown in FIG. 2.
All surgeries were performed in adult male Brown Norway rats, retired breeders, between 10-12 months of age (300-400 g), under general anesthesia by intraperitoneal injection of 1 ml/kg b.w. standard rat cocktail consisting of ketamine (100 mg/ml), xylazine (20 mg/ml) and acepromazine (10 mg/ml).
Seven days after DiI application, the time required for labeling the entire RGC population, animals were subjected to ocular hypertension surgery as described below. […]
Analysis of RGC survival was carried out at 5 weeks after ocular hypertension surgery. Quantification of RGC bodies or axons was always performed in duplicate and in a masked fashion. […] Under fluorescence microscopy, DiI-labeled or FluoroGold-labeled neurons were counted in 12 standard retinal areas as previously described (Cheng et al. 2002; Sapieha et al. 2003).

[5] = human, in vivo; cited from earlier work
[6] = mouse, in vivo; cited from earlier work

alpha-7 nicotinic acetylcholine receptor, sequence (Q05941 23-502 limits assumed): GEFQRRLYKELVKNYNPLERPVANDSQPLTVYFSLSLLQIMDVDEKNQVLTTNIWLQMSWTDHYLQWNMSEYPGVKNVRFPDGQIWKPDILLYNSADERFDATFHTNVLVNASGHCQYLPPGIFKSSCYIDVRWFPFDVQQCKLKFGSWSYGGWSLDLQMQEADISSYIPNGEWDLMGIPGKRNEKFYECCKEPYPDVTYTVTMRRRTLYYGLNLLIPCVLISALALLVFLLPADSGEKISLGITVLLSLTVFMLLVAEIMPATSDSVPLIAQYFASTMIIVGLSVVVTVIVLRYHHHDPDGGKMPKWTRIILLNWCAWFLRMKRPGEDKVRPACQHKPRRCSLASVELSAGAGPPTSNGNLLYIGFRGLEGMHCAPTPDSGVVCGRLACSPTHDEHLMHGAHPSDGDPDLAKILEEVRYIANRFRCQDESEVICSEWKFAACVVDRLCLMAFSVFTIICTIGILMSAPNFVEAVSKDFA

Q: With COc1cc2c(cc1OC)C(=O)C(CC1CCN(Cc3ccccc3)CC1)C2 (stereo not shown) [Donepezil, donepezil] as the molecule, how does the “neuroprotection of RGCs after axotomy, galantamine vs donepezil (in words)” value ([1]; 3.5 mg/kg b.w., single intraocular injection, 1 week after optic nerve axotomy) read?
A: neuroprotective after axotomy

Q: Which “block of the total neuroprotective effect of galantamine” value [2] does the source give for Alpha-bungarotoxin here?
A: 10-15%

Q: Which “Integral IOP” value [3] does the source give for COc1ccc2c3c1O[C@H]1C[C@@H](O)C=C[C@@]31CCN(C)C2 [Galantamine, galantamine] here?
A: 321 ± 10 mm Hg

Q: And the “Mean IOP Control” value [3]?
A: 23.7 ± 0.2 mm Hg

Q: And the “Mean IOP Glaucoma” value [3]?
A: 40.7 ± 0.8 mm Hg

Q: What about the RGCs preserved [4] of the same molecule?
A: 90%

Q: What about the RGCs remaining alive ([1]; rat, in vivo) of the same molecule?
A: ~30%

Q: And the “survival of axotomized RGCs” value ([1]; rat, in vivo)?
A: > 75%

Q: What about the “estimated brain concentration of functionally available galantamine” value [5] of the same molecule?
A: 500 to 1200 nM

Q: What about the brain levels [6] of the same molecule?
A: 200 to 1000 nM
